Measurements reported in US20240132534A1, “OLIGONUCLEOTIDE PRIMER WITH AN ACYCLIC NUCLEOSIDE STRUCTURE FOR INITIAL CAPPING” (JIANGSU SYNTHGENE BIOTECHNOLOGY CO., LTD., priority 2022, published 2024).

Key:
[1] = target: T7 transcription (Escherichia phage T7, UniProt P00573); conditions: cited from earlier work
[2] = target: T1, T7 RNA polymerase (Escherichia phage T7, UniProt P00573); assay: IVT capping rate of mRNA by LC-MS; type: biochemical; conditions: for Capping rate: LC-MS after RNase H cleavage; for Increased capping rate relative to Comparative Example 1: vs capping rate 93.5% of Comparative Example 1
T1 sequence (P00573 whole entry): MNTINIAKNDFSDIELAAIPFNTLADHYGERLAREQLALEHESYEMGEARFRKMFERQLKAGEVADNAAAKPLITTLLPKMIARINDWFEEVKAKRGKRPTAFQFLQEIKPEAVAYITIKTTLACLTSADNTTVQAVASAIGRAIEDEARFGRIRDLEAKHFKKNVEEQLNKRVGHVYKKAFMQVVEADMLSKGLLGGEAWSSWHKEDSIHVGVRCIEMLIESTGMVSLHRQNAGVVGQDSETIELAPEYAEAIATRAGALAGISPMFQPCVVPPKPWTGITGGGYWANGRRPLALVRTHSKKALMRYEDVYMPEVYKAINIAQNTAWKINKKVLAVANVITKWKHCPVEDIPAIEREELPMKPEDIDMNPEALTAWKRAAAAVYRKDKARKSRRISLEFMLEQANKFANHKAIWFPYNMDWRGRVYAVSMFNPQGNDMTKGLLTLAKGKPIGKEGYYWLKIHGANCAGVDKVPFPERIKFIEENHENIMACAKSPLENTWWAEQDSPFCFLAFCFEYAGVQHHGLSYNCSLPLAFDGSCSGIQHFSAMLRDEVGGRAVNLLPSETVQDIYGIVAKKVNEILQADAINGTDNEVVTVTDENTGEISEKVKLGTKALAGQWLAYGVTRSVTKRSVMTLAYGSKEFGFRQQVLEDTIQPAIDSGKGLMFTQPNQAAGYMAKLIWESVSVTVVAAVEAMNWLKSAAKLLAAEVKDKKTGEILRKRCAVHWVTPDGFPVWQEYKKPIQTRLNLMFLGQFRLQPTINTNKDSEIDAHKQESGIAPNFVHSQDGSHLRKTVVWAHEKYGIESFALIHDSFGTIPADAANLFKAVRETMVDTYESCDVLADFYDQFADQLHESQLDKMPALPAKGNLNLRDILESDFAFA
Experimental: (§1) Test Example 1: Determination of in vitro transcription yield and capping efficiency of mRNA
(§2) In vitro synthesis of mRNA was performed using the oligonucleotide primer with an acyclic nucleoside structure for initial capping by the co-transcriptional capping method. First, the plasmid was digested with NotI overnight at […]. DNA template was extracted to synthesize mRNA by in vitro transcription. The oligonucleotide primers with an acyclic nucleoside structure for initial capping in Examples 1-4, 6, 7, and 11 and the capping analogs in Comparative Examples 1-2 were used as cap structures respectively.
Liquid chromatography mass spectrometry (LC-MS) was used to determine the IVT capping rate of mRNA with different initial cap analogs. First, it is necessary to design a labeled DNA probe that matches the starting base of the transcript product mRNA, and usually the label is biotin. The streptavidin-labeled magnetic beads were washed, and incubated with the synthesized DNA probe, mRNA and 10×RNase H reaction buffer at room temperature for 30 min. The mixture was mixed slowly while incubating, then added with 20 μl of RNase. H (5U/μl), incubated at 37° C. for 3 h, and mixed thoroughly every half hour. After the incubation was completed, the magnetic beads were washed and added with 100 μL of 75% methanol heated to 80° C. The mixture was heated to 80° C. on a hot plate and kept for 3 min, and then placed on a magnetic stand. The supernatant was collected and dried at room temperature for 45 min to 10 μl using an evaporative centrifuge. The sample was then resuspended in 50 μl of 100 μM EDTA/1% MeOH, which was ready for LC-MS analysis to determine RNA capping during the transcription reaction. Since there was a significant difference in molecular weight between capped and uncapped bases, the capping rate of mRNA transcription initiated by different cap analogs can be determined through the difference in molecular mass.

[3] = target: T2, RIG-I (Homo sapiens, UniProt O95786); assay: Binding ability of mRNA to RIG-I (RNA co-immunoprecipitation, RT-qPCR) in transfected 293T cells; type: cell-based; conditions: eGFP mRNA made with the cap analog, 24 h after transfection
T2 construct: endogenous in cells; host or cells: 293T cells
T2 sequence (O95786 1-925): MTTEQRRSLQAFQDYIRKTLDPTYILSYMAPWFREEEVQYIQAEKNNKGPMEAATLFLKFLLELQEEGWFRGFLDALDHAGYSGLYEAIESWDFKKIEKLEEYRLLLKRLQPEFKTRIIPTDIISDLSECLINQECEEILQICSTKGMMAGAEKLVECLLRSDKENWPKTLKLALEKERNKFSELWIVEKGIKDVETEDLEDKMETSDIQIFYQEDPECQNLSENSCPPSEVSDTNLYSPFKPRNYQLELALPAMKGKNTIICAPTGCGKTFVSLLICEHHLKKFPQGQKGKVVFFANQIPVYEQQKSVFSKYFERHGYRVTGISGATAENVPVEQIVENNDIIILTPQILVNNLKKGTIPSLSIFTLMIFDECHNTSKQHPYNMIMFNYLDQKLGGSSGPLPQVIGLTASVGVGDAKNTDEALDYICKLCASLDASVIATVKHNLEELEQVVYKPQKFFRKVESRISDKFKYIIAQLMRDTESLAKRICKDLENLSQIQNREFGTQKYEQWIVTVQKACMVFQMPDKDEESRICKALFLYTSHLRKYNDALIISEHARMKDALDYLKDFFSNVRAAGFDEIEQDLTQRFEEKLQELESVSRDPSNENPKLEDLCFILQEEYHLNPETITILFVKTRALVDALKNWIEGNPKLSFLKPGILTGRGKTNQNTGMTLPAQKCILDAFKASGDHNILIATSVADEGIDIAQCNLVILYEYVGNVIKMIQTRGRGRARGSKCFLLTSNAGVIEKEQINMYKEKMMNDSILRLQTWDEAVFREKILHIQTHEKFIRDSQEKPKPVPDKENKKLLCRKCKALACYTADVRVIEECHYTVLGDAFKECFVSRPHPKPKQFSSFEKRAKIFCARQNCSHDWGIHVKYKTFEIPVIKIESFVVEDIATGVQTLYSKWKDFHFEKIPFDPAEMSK
Description: Test Example 2: Determination of the binding ability of mRNA to RIG I
RIG-I mainly includes two repeated caspase activation and recruitment domains (CARD) at the N-terminus, a helicase structure in the middle and a RNA domain at the C-terminus. The overexpression of the N-terminal CARD domain of RIG-I can promote cells to secrete type I interferon (IFN) even in the absence of viral infection. Therefore, this domain is mainly responsible for transmitting signals downstream. RIG-I can recognize exogenous RNA, mediate the production of cytokines and chemokines, and recruit innate immune cells to trigger immune responses. mRNA with high immunogenicity is easily recognized and combined by RIG. Thus, mRNA with strong binding ability to RIG-1 has high immunogenicity.
In this study, 293T cells were transfected with the eGFP mRNAs prepared by in vitro transcription initiated by the oligonucleotide primers with an acyclic nucleoside structure for initial capping in Examples 1-4, 6, 7, and 11 and the cap analogs in Comparative Examples 1-2, and collected 24 hours later. The intracellular protein RIG I and RNA bound thereto were co-immunoprecipitated by the RNA co-immunoprecipitation method. Finally, reverse transcription and real-time quantitative PCR were performed on these mRNAs.
The specific cell culture conditions were the same as above. Cells were collected 24 hours after transfection. First, a fixing solution was added for incubation. After 10 min, glycine solution of an appropriate concentration was added to terminate the reaction, and cells were collected. The collected cells were lysed using the lysis solution, centrifuged at 12,000 rpm and 4° C. for 10 min. The supernatant was collected and incubated with an appropriate amount of RIG-I or IgG antibody on a shaker at 4° C. overnight. Then 20 μl of Protein A/G magnetic beads were added, incubated at 4° C. for 4 h, and washed on a magnetic stand. After washing was completed, RNA was extracted and used for subsequent RT-qPCR to determine the expression results.

[4] = target: T1, T7 RNA polymerase; assay: In vitro transcription yield of mRNA by co-transcriptional capping; type: biochemical; conditions: for Yield: mRNA from 20 μl IVT, 1 μg template, 37° C. 2 h, Nanodrop One; for Increased yield relative to Comparative Example 1: mRNA IVT yield vs 50 μg of Comparative Example 1
Experimental: as §1, §2
Note: During the experiment, the volume of materials required for the system was first calculated, and then the sample was added. The system was firstly added with sterile enzyme-free water, then added with 10X buffer, NTPs, and cap structure subsequently, mixed, centrifuged gently, then added with nuclease inhibitor, inorganic pyrophosphatase, T7 RNA polymerase, and linearized DNA template, mixed thoroughly, centrifuged gently, and incubated at 37° C. After 2 h, the system was added with 1U of DNase I and incubated at 37° C. for another 30 min to remove the DNA template. Then RNA was purified, usually by the magnetic bead purification method. The purified mRNA was dissolved in sterile enzyme-free water, and then quantitatively measured using Nanodrop One.

Chain of T7 transcription (P00573 whole entry): as the sequence (P00573 whole entry) above

Row | Compound | Capped RNA prepared per milliliter of transcription reaction system ([1]; per milliliter of transcription reaction) [mg] | Immunogenicity of transcription products ([1]; vs ARCA) | Capping rate [2] [%] | Relative binding ability to RIG-I [3] | Yield [4] [µg] | Increased capping rate relative to Comparative Example 1 [2] [%] | Increased yield relative to Comparative Example 1 [4] [%]
1 | COC1C(OP(=O)(O)OC[C@H]2O[C@@H](n3cnc4c(=O)[nH]c(N)nc43)C(O)C2O)[C@@H](COP(=O)(O)OP(=O)(O)OP(=O)([O-])OC[C@H]2O[C@@H](n3c[n+](C)c4c(=O)[nH]c(N)nc43)C(O)C2O)O[C@H]1n1cnc2c(N)ncnc21 (stereo in doubt) [Comparative Example 1, ^m7GpppA2′OMepG, reference compound] | 4 | lower than that of ARCA | 93.5 | 3.1±0.51 | 50 | – | –
2 | COC[C@@H](COP(=O)(O)OP(=O)([O-])OP(=O)(O)OC[C@H]1O[C@@H](n2cnc3c(N)ncnc32)C(OC)C1OP(=O)(O)OC[C@H]1O[C@@H](n2cnc3c(=O)[nH]c(N)nc32)C(O)C1O)O[C@H](CO)n1c[n+](C)c2c(=O)[nH]c(N)nc21 (stereo in doubt) [Example 11] | – | – | 96.8 | 1.5±0.25 | 71 | 3.3 | 42
3 | COC1C(OP(=O)(O)OC[C@H](CO)O[C@H](CO)n2cnc3c(=O)[nH]c(N)nc32)[C@@H](COP(=O)(O)OP(=O)(O)OP(=O)([O-])OC[C@H]2O[C@@H](n3c[n+](C)c4c(=O)[nH]c(N)nc43)C(O)C2O)O[C@H]1n1cnc2c(N)ncnc21 (some centres unmarked) [Comparative Example 2, reference compound] | – | – | 90.1 | 4.0 ± 0.31 | 41 | – | –
4 | CO[C@H]1C(OP(=O)(O)OC[C@H]2O[C@@H](n3cnc4c(=O)[nH]c(N)nc43)[C@@H](O)C2O)[C@@H](COP(=O)(O)OP(=O)([O-])OP(=O)(O)OC[C@H](CO)O[C@H](CO)n2c[n+](C)c3c(=O)[nH]c(N)nc32)O[C@H]1n1cnc2c(N)ncnc21 (some centres unmarked) [Example 1] | – | – | 99.3 | – | 72 | 5.8 | 44
5 | CO[C@H]1C(OP(=O)(O)OC[C@H](CO)O[C@H](CO)n2cnc3c(=O)[nH]c(N)nc32)[C@@H](COP(=O)(O)OP(=O)([O-])OP(=O)(O)OC[C@H](CO)O[C@H](CO)n2c[n+](C)c3c(=O)[nH]c(N)nc32)O[C@H]1n1cnc2c(N)ncnc21 (some centres unmarked) [Example 2] | – | – | 96.5 | 2.4 ± 0.34 | 58 | 3 | –
6 | COC[C@@H](O[C@@H](COP(=O)(O)OC[C@H](CO)O[C@H](CO)n1cnc2c(=O)[nH]c(N)nc21)COP(=O)(O)OP(=O)([O-])OP(=O)(O)OC[C@H](CO)O[C@H](CO)n1c[n+](C)c2c(=O)[nH]c(N)nc21)n1cnc2c(N)ncnc21 [Example 4] | – | – | 93.3 | 2.8 ± 0.62 | 45 | – | –
7 | COCCOC1C(OP(=O)(O)OC[C@H]2O[C@@H](n3cnc4c(=O)[nH]c(N)nc43)C(O)C2O)[C@@H](COP(=O)(O)OP(=O)(O)OP(=O)([O-])OC[C@H](CO)O[C@H](CO)n2c[n+](C)c3c(=O)[nH]c(N)nc32)O[C@H]1n1cnc2c(N)ncnc21 (some centres unmarked) [Example 6] | – | – | 95.2 | 1.4±0.32 | 44 | – | –
8 | C[n+]1cn([C@@H](CO)O[C@@H](CO)COP(=O)([O-])OP(=O)(O)OP(=O)(O)OC[C@]23COC(C2OP(=O)(O)OC[C@H]2O[C@@H](n4cnc5c(=O)[nH]c(N)nc54)C(O)C2O)[C@H](n2cnc4c(N)ncnc42)O3)c2nc(N)[nH]c(=O)c21 (some centres unmarked) [Example 7] | – | – | 97.6 | 2.1 ± 0.21 | 68 | 4.1 | 36
